Laboratory results taken from patent US10473645B2, “Methods for identifying a receptor for a ligand and uses thereof” (UNIVERSITE DE GENEVE, priority 2014, dated 2019).

Tests used:
Experiment in all cases: OR transcript level by RT-qPCR after in vivo odorant exposure
Parameters in all cases: species or system mouse; key: The transcript downregulation of 21 out of the 26 olfactory receptor candidates obtained by RNAseq was confirmed by qPCR; false RNAseq positive candidates, namely OR candidates for which in fact mRNA was not downregulated following acetophenone exposure
Settings in all cases: 5% acetophenone exposure
olfr1054 = test system: olfr1054
Protocol: (§1) In vivo exposure to odorant: Starting 48 h before experiments, mice were habituated to pure DMSO on a cotton ball. 200 μl were pipetted directly onto the cotton and placed in the cage, replacing any cotton that was already in the cage for nest-making purposes.
(§2) On the day of the experiment, mice receiving odorants were transferred to a different room, where they were exposed to a cotton ball on which 200 μl of odorant diluted in pure DMSO were deposited. Exposures started in the morning between 8 and 10 am (that is two hours after lights were on) and mice were killed and dissected between 1 and 3 pm. […] If a number of different odorants were tested in the same experiment, a different overpressurized room would always be used for each odorant to avoid odor cross-contamination.
(§3) After odorant exposure, mice were killed by cervical dislocation and immediately decapitated. The main olfactory epithelia (MOE), were harvested in their entirety and transferred to a tube containing 600 μl of lysis buffer and β-mercaptoethanol (RNAeasy kit, Qiagen, following the manufacturer protocol) and a 0.5 cm diameter steel ball, and then put on ice. Samples were then homogenized using a FastPrep®-24 instrument (MP Biomedicals) at 6 m/s for 30 s and left on ice. RNA extraction was performed on all samples in parallel using the Qiagen RNeasy Mini® kit following the manufacturer's instructions. Two DNase treatments were performed on all samples: first using the Qiagen RNase-Free DNase Set® and then using the Life Technologies Ambion DNase I® kit. RNA samples were then aliquoted and stored at −80° C.
(§4) RNA concentrations were determined using an Amersham Ultrospec® 3100 Pro spectrophotometer, and RNA quality was evaluated with an Agilent Technologies 2100 Bioanalyzer®. Each reverse transcription was performed with 0.5 μg RNA using the Takara Primescript® kit, in a final volume of 10 μl. Primers for reverse transcription were equal mixtures of poly-T nucleotides and random hexamers. Negative controls (omitting the reverse transcriptase enzyme) were performed for each sample. 1/14th of the cDNA preparation was used for each triplicated qPCR reaction.
(§5) qPCR Ct values were analyzed using an in-house developed Microsoft Excel® macro file. Triplicate values were compared and outliers (values with a difference higher than 0.5 Ct to their nearest neighbor) were discarded. The number of conditions with an outlying value was always less than 10% of the total number of conditions. Ct values were converted to quantities relative to the maximum for each given gene. Selected reference genes were then analyzed for variance using the geNorm algorithm. All values were normalized with the olfactory tissue-specific genes Omp and Adcy3. β-Actin was used as a non-tissue-specific reference gene to control for differences in dissection between samples.
(§6) Mice (n=6) were exposed to 5% acetophenone or to a “neutral” control condition for 5 hours. An olfactory cDNA library corresponding to each animal was deep sequenced and the ratios of odorant receptor mRNA concentrations relative to controls were plotted (FIG. 3). […] Based on transcriptional downregulation levels observed by RNAseq following acetophenone exposure, a list of 26 candidate responsive ORs was determined (FIG. 3), that reached 74% decrease (Olfr145) or even over 80% (Olfr169) relative to controls. […] The transcript downregulation of 21 out of the 26 olfactory receptor candidates obtained by RNAseq was confirmed by qPCR.

olfr109 = test system: olfr109
Protocol: as §1, §2, §3, §4, §5, §6

olfr1135 = test system: olfr1135
Protocol: as §1, §2, §3, §4, §5, §6

olfr1501 = test system: olfr1501
Protocol: as §1, §2, §3, §4, §5, §6

olfr30 = test system: olfr30
Protocol: as §1, §2, §3, §4, §5, §6

olfr378 = test system: olfr378
Protocol: as §1, §2, §3, §4, §5, §6

olfr47 = test system: olfr47
Protocol: as §1, §2, §3, §4, §5, §6

olfr745 = test system: olfr745
Protocol: as §1, §2, §3, §4, §5, §6

olfr750 = test system: olfr750
Protocol: as §1, §2, §3, §4, §5, §6

olfr901 = test system: olfr901
Protocol: as §1, §2, §3, §4, §5, §6

olfr922 = test system: olfr922
Protocol: as §1, §2, §3, §4, §5, §6

olfr935 = test system: olfr935
Protocol: as §1, §2, §3, §4, §5, §6

SMILES: CC(=O)c1ccccc1 [acetophenone]
- olfr1054 candidate OR (RNAseq) confirmed by qPCR (olfr1054): y
- olfr109 candidate OR (RNAseq) confirmed by qPCR (olfr109): y
- olfr1135 candidate OR (RNAseq) confirmed by qPCR (olfr1135): n
- olfr1501 candidate OR (RNAseq) confirmed by qPCR (olfr1501): y
- olfr30 candidate OR (RNAseq) confirmed by qPCR (olfr30): y
- olfr378 candidate OR (RNAseq) confirmed by qPCR (olfr378): n
- olfr47 candidate OR (RNAseq) confirmed by qPCR (olfr47): y
- olfr745 candidate OR (RNAseq) confirmed by qPCR (olfr745): y
- olfr750 candidate OR (RNAseq) confirmed by qPCR (olfr750): n
- olfr901 candidate OR (RNAseq) confirmed by qPCR (olfr901): y
- olfr922 candidate OR (RNAseq) confirmed by qPCR (olfr922): y
- olfr935 candidate OR (RNAseq) confirmed by qPCR (olfr935): y
